Assay results: PubChem BioAssay (NCI)
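Growth conditions: 96-well plates. Treatment: test compound, 48 hours, 5 concentrations. Analysis: linear interpolation between bracketing concentrations; unreached endpoints set to highest concentration. Abbreviation: GI50, concentration required for 50% inhibition of growth. The concentration for full growth arrest is given as TGI.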

What was measured:
Test in all cases: growth of human tumour cells (NCI), 48 h
SR leukemia = tested on: SR leukemia
HCT-15 colon = tested on: HCT-15 colon
OVCAR-3 ovarian = tested on: OVCAR-3 ovarian
UO-31 renal = tested on: UO-31 renal
KM12 colon = tested on: KM12 colon
OVCAR-4 ovarian = tested on: OVCAR-4 ovarian
SK-MEL-2 melanoma = tested on: SK-MEL-2 melanoma
HOP-92 NSCLC = tested on: HOP-92 NSCLC
EKVX NSCLC = tested on: EKVX NSCLC
MDA-MB-231 breast = tested on: MDA-MB-231 breast

Row | SMILES | TGI (SR leukemia) | TGI (HCT-15 colon) | TGI (OVCAR-3 ovarian) | TGI (UO-31 renal) | TGI (KM12 colon) | TGI (OVCAR-4 ovarian) | TGI (SK-MEL-2 melanoma) | TGI (HOP-92 NSCLC) | TGI (EKVX NSCLC) | TGI (MDA-MB-231 breast) | GI50 (HCT-15 colon) | GI50 (OVCAR-3 ovarian) | GI50 (UO-31 renal) | GI50 (KM12 colon) | GI50 (OVCAR-4 ovarian) | GI50 (SK-MEL-2 melanoma) | GI50 (HOP-92 NSCLC) | GI50 (EKVX NSCLC) | GI50 (SR leukemia) | GI50 (MDA-MB-231 breast)
1 | O=S(=O)(/C=C/c1ccc(F)cc1)Cc1ccc(CS(=O)(=O)/C=C/c2ccc(F)cc2)cc1 | > 100 µM | > 100 µM | > 100 µM | > 100 µM | > 100 µM | > 100 µM | > 100 µM | > 100 µM | > 100 µM |  |  |  |  |  |  |  |  |  |  | 
2 | O=C1CCCCCCCCCCC1CN1CCCC1 (stereo not drawn) |  | > 100 µM | > 100 µM | > 100 µM | > 100 µM |  | 99.7 µM |  |  | > 100 µM |  |  |  |  |  |  |  |  |  | 
3 | C=C1CC2OC(=O)C(=C)C2C(O)C2C(=C)CCC12 (stereo not drawn) | 14 µM |  | 22.3 µM | 29.7 µM | 22.6 µM |  | 40.8 µM | 5.84 µM | 19.7 µM |  |  |  |  |  |  |  |  |  |  | 
4 | COc1ccc2c(c1)C(=O)c1ccc(OC)cc1C2=S | > 100 µM | > 100 µM | > 100 µM | > 100 µM | > 100 µM |  | > 100 µM | > 100 µM | > 100 µM |  |  |  |  |  |  |  |  |  |  | 
5 | NNC(=O)C1CCC(=O)N1S(=O)(=O)c1ccccc1 (stereo not drawn) | > 100 µM | > 100 µM | > 100 µM | > 100 µM | > 100 µM | > 100 µM | > 100 µM | > 100 µM | > 100 µM |  |  |  |  |  |  |  |  |  |  | 
6 | O=C1C(c2ccccc2)=C(O)c2cccc3cccc1c23 | > 100 µM | > 100 µM | > 100 µM | > 100 µM | > 100 µM | > 100 µM | > 100 µM | > 100 µM | > 100 µM |  |  |  |  |  |  |  |  |  |  | 
7 | O=C1CCCCC1S(=O)(=O)c1ccccc1 (stereo not drawn) | > 100 µM | > 100 µM | > 100 µM | > 100 µM | > 100 µM | > 100 µM | > 100 µM | > 100 µM | > 100 µM |  |  |  |  |  |  |  |  |  |  | 
8 | COc1cc(OC)c(C/C=C/c2ccccc2)cc1O |  | 30.1 µM | 31.1 µM | 29.6 µM | 31.5 µM | 33.5 µM | 41.8 µM | 26.5 µM | 33.6 µM | 31.7 µM |  |  |  |  |  |  |  |  |  | 
9 | OC(CCNC12CC3CC(CC(C3)C1)C2)c1ccccc1 (stereo not drawn) |  | > 100 µM | > 100 µM | > 100 µM | > 100 µM | > 100 µM | > 100 µM | > 100 µM | > 100 µM |  |  |  |  |  |  |  |  |  |  | 
10 | CC(=O)[CH-]C(=O)c1ccccc1.CC(=O)[CH-]C(=O)c1ccccc1.CC[O-].CC[O-].[Hf+4] |  | > 100 µM | > 100 µM | > 100 µM | > 100 µM | > 100 µM | > 100 µM | > 100 µM | > 100 µM |  | > 100 µM | > 100 µM | > 100 µM | > 100 µM | > 100 µM | > 100 µM | 36.8 µM | 38.2 µM |  | 
11 | COc1ccc(/C=C/c2cc(OC)c(OC)c(OC)c2)cc1 |  | > 93.5 µM | 17.7 µM | > 100 µM | > 100 µM | > 100 µM | 52.8 µM | > 100 µM | > 100 µM |  |  |  |  |  |  |  |  |  |  | 
12 | NC(=O)CN(CC(N)=O)C(N)=O |  | > 100 µM | > 100 µM | > 100 µM | > 100 µM | > 100 µM | > 100 µM | > 100 µM | > 100 µM |  |  |  |  |  |  |  |  |  |  | 
13 | Nc1ncnc2c1N=C(c1ccc3c(c1)OCO3)CC(c1ccc([N+](=O)[O-])cc1)N2 (stereo not drawn) | 67.9 µM | > 100 µM | > 100 µM | > 100 µM | > 100 µM | > 100 µM |  |  | > 100 µM | > 100 µM | 9.55 µM | 88.3 µM | 18.1 µM | 35.2 µM | > 100 µM |  |  | 92.6 µM | 2.37 µM | 38.9 µM
14 | O=C(O)CC[C@H](NC(=O)c1ccc(-n2nc3ccc(O)cc3nc2=O)cc1)C(=O)O | > 100 µM | > 100 µM | > 100 µM | > 100 µM | > 100 µM | > 100 µM | > 100 µM | > 100 µM | > 100 µM |  |  |  |  |  |  |  |  |  |  | 
15 | COc1c(O)c2c3c(cc(C)cc3c1C(C)C)OC2 | > 100 µM | > 100 µM | > 100 µM | > 100 µM | > 100 µM | > 100 µM | > 100 µM | > 100 µM | > 100 µM |  |  |  |  |  |  |  |  |  |  | 
16 | O=C1C=CC(=O)C2=C1[C@@H](O)C1CC=CC3C(=O)O[C@@H]2C31 (stereo partly drawn) | > 100 µM | 44.1 µM | 36.8 µM | > 71.5 µM | 41.2 µM | 17.7 µM | 35.6 µM | 45.4 µM | > 100 µM |  |  |  |  |  |  |  |  |  |  | 
17 | COc1cc2ccnc3c2c(c1OC)-c1coc(SC)c1-3 | > 100 µM | > 100 µM |  | > 100 µM | > 100 µM | > 100 µM | > 100 µM | > 100 µM |  |  |  |  |  |  |  |  |  |  |  | 
18 | Cc1nc(Nc2ccccc2)sc1C(=O)CC(=O)C(=O)Nc1c(C(C)C)cccc1C(C)C | > 100 µM | > 100 µM | > 100 µM | > 100 µM | > 100 µM | > 100 µM | > 100 µM | > 100 µM | 89.5 µM |  |  |  |  |  |  |  |  |  |  | 
19 | C/C(=N/NC(=S)N1CCCCC1)c1ccccc1O |  | > 31.6 µM | > 31.6 µM | > 31.6 µM | > 31.6 µM | > 31.6 µM | > 31.6 µM | > 31.6 µM | > 31.6 µM | > 100 µM |  |  |  |  |  |  |  |  |  | 
20 | CCOc1cc2c(C(=O)CC)c(O)ccc2o1 | > 100 µM | > 100 µM | > 100 µM | > 100 µM | > 100 µM | > 56.8 µM | > 100 µM | > 100 µM | > 100 µM |  |  |  |  |  |  |  |  |  |  | 
21 | CCOC(C[C@H](O[Si](C)(C)C(C)(C)C)[C@H]1COC(=S)S1)OCC | > 100 µM | > 100 µM | > 100 µM | > 100 µM | > 100 µM |  |  |  | > 100 µM |  |  |  |  |  |  |  |  |  |  | 
22 | CC1(C)CC(O)C(C)(C)[C@@H](O)C1 (stereo partly drawn) |  | > 100 µM |  | > 100 µM | > 100 µM | > 100 µM | > 100 µM |  | > 100 µM | > 100 µM |  |  |  |  |  |  |  |  |  | 
23 | CCCCCCC[CH2][Sn]([CH2]CCCCCCC)([O]c1cccc2cccnc12)[O]c1cccc2cccnc12 |  | 10.8 µM | 6.62 µM | 5.42 µM | 4.19 µM |  | 3.14 µM |  | 7.18 µM |  | 2.53 µM | 1.85 µM | 2 µM | 1.91 µM |  | 1.61 µM |  | 2.06 µM |  | 
